Source: the CheMixHub viscosity set
± gives the uncertainty stated by the source.

Experiment: xn = mol fraction of the nth substance listed

Nc1cccc2ccccc12 + Oc1ccccc1
viscosity [mPa·s], 101.33 kPa
Conditions | x1 = 0.4159 | x1 = 0.4605 | x1 = 0.7133 | x1 = 0.8902
303.15 K | 24.9 ± 0.25 | 26.9 ± 0.27 | 32.4 ± 0.32 | –
323.15 K | 8.52 ± 0.085 | 9 ± 0.09 | 10.9 ± 0.11 | 11.3 ± 0.11

N#Cc1ccccc1 + COc1ccccc1
viscosity [mPa·s], 101.33 kPa
Conditions | x2 = 0.0923 | x2 = 0.1792 | x2 = 0.2764 | x2 = 0.3719 | x2 = 0.4735 | x2 = 0.6068 | x2 = 0.7036 | x2 = 0.808 | x2 = 0.8989
293.15 K | 1.315 ± 0.069 | 1.3 ± 0.068 | 1.27 ± 0.067 | 1.235 ± 0.065 | 1.191 ± 0.062 | 1.164 ± 0.061 | 1.149 ± 0.06 | 1.134 ± 0.06 | 1.119 ± 0.059
298.15 K | 1.226 ± 0.064 | 1.201 ± 0.063 | 1.181 ± 0.062 | 1.142 ± 0.06 | 1.122 ± 0.059 | 1.088 ± 0.057 | 1.079 ± 0.057 | 1.056 ± 0.055 | 1.036 ± 0.054

N#Cc1ccccc1 + ClC(Cl)(Cl)Cl
viscosity [mPa·s], 101 kPa
Conditions | 293.15 K | 298.15 K | 303.15 K | 313.15 K | 323.15 K
x1 = 0.005 | 0.986 ± 0.026 | 0.91 ± 0.02 | 0.845 ± 0.022 | 0.748 ± 0.02 | 0.669 ± 0.018
x1 = 0.009 | 1.008 ± 0.026 | 0.934 ± 0.024 | 0.871 ± 0.023 | 0.772 ± 0.02 | 0.694 ± 0.018
x1 = 0.045 | 1.005 ± 0.026 | 0.929 ± 0.024 | 0.863 ± 0.023 | 0.769 ± 0.02 | 0.691 ± 0.018

O=[N+]([O-])[O-].O=[N+]([O-])[O-].[Ca+2] + O
viscosity [mPa·s], 100 kPa
Conditions | x1 = 0.00575 | x1 = 0.006 | x1 = 0.01 | x1 = 0.01205 | x1 = 0.0267 | x1 = 0.03 | x1 = 0.04 | x1 = 0.04494 | x1 = 0.06819 | x1 = 0.07
298.15 K | 0.963 ± 0.03 | 0.964 ± 0.038 | 1.052 ± 0.042 | 1.051 ± 0.033 | 1.384 ± 0.043 | 1.328 ± 0.052 | 1.955 ± 0.077 | 1.954 ± 0.061 | 3.256 ± 0.1 | 3.257 ± 0.13
323.15 K | 0.599 ± 0.019 | 0.599 ± 0.024 | 0.66 ± 0.026 | 0.66 ± 0.021 | 0.852 ± 0.027 | 0.844 ± 0.033 | 1.207 ± 0.048 | 1.204 ± 0.038 | 1.928 ± 0.06 | 1.931 ± 0.076

CCCCn1cc[n+](C)c1.[Cl-] + CO
101 kPa
Conditions | viscosity [mPa·s]
293.15 K, x2 = 0.5001 | 65.2 ± 11
293.15 K, x2 = 0.7002 | 8.41 ± 1.4
298.15 K, x2 = 0.7015 | 7.51 ± 1.2
308.15 K, x2 = 0.7001 | 6.61 ± 1.1

N#Cc1ccccc1 + c1ccccc1
Conditions | viscosity [mPa·s]
298.15 K, 101 kPa, x1 = 0.2 | 0.688 ± 0.019
298.15 K, 101 kPa, x2 = 0.1681 | 1.098 ± 0.33
298.15 K, 101 kPa, x2 = 0.3126 | 0.9985 ± 0.3
298.15 K, 101 kPa, x2 = 0.4381 | 0.9214 ± 0.28
298.15 K, 101 kPa, x2 = 0.5481 | 0.8456 ± 0.25
298.15 K, 101 kPa, x2 = 0.6453 | 0.7942 ± 0.24
298.15 K, 101 kPa, x2 = 0.7318 | 0.7145 ± 0.21
298.15 K, 101 kPa, x2 = 0.8093 | 0.6845 ± 0.21
298.15 K, 101 kPa, x2 = 0.8792 | 0.6157 ± 0.18
298.15 K, 101 kPa, x2 = 0.9423 | 0.5987 ± 0.18
303.15 K, 101 kPa, x2 = 0.1133 | 1.013 ± 0.013
303.15 K, 101 kPa, x2 = 0.1681 | 0.9758 ± 0.29
303.15 K, 101 kPa, x2 = 0.2233 | 0.932 ± 0.012
303.15 K, 101 kPa, x2 = 0.3126 | 0.9251 ± 0.28
303.15 K, 101 kPa, x2 = 0.3302 | 0.866 ± 0.011
303.15 K, 101 kPa, x2 = 0.434 | 0.812 ± 0.01
303.15 K, 101 kPa, x2 = 0.4381 | 0.8542 ± 0.26
303.15 K, 101 kPa, x2 = 0.5349 | 0.766 ± 0.0097
303.15 K, 101 kPa, x2 = 0.5481 | 0.8025 ± 0.24
303.15 K, 101 kPa, x2 = 0.633 | 0.7225 ± 0.0091
303.15 K, 101 kPa, x2 = 0.6453 | 0.7256 ± 0.22
303.15 K, 101 kPa, x2 = 0.7285 | 0.68 ± 0.0086
303.15 K, 101 kPa, x2 = 0.7318 | 0.6953 ± 0.21
303.15 K, 101 kPa, x2 = 0.8093 | 0.6245 ± 0.19
303.15 K, 101 kPa, x2 = 0.8214 | 0.6395 ± 0.0081
303.15 K, 101 kPa, x2 = 0.8792 | 0.5946 ± 0.18
303.15 K, 101 kPa, x2 = 0.9119 | 0.5996 ± 0.0076
303.15 K, 101 kPa, x2 = 0.9423 | 0.5742 ± 0.17
303.15 K, 101.32 kPa, x2 = 0.1527 | 1.001 ± 0.004
303.15 K, 101.32 kPa, x2 = 0.3165 | 0.902 ± 0.004
303.15 K, 101.32 kPa, x2 = 0.4174 | 0.831 ± 0.004
303.15 K, 101.32 kPa, x2 = 0.5485 | 0.765 ± 0.004
303.15 K, 101.32 kPa, x2 = 0.6569 | 0.715 ± 0.004
303.15 K, 101.32 kPa, x2 = 0.7859 | 0.659 ± 0.004
303.15 K, 101.32 kPa, x2 = 0.9145 | 0.607 ± 0.004
308.15 K, 101 kPa, x1 = 0.2 | 0.605 ± 0.016
308.15 K, 101 kPa, x2 = 0.1681 | 0.9852 ± 0.3
308.15 K, 101 kPa, x2 = 0.3126 | 0.9457 ± 0.28
308.15 K, 101 kPa, x2 = 0.4381 | 0.8352 ± 0.25
308.15 K, 101 kPa, x2 = 0.5481 | 0.7648 ± 0.23
308.15 K, 101 kPa, x2 = 0.6453 | 0.7054 ± 0.21
308.15 K, 101 kPa, x2 = 0.7318 | 0.6582 ± 0.2
308.15 K, 101 kPa, x2 = 0.8093 | 0.6214 ± 0.19
308.15 K, 101 kPa, x2 = 0.8792 | 0.5743 ± 0.17
308.15 K, 101 kPa, x2 = 0.9423 | 0.5621 ± 0.17
313.15 K, 101 kPa, x2 = 0.1681 | 0.9756 ± 0.29
313.15 K, 101 kPa, x2 = 0.3126 | 0.9143 ± 0.27
313.15 K, 101 kPa, x2 = 0.4381 | 0.8215 ± 0.25
313.15 K, 101 kPa, x2 = 0.5481 | 0.7236 ± 0.22
313.15 K, 101 kPa, x2 = 0.6453 | 0.6974 ± 0.21
313.15 K, 101 kPa, x2 = 0.7318 | 0.6318 ± 0.19
313.15 K, 101 kPa, x2 = 0.8093 | 0.5845 ± 0.18
313.15 K, 101 kPa, x2 = 0.8792 | 0.5413 ± 0.16
313.15 K, 101 kPa, x2 = 0.9423 | 0.5128 ± 0.15
318.15 K, 101 kPa, x1 = 0.2 | 0.532 ± 0.014
323.15 K, 101 kPa, x1 = 0.2 | 0.498 ± 0.013

O=P([O-])([O-])[O-].[K+].[K+].[K+] + O
viscosity [mPa·s], 101 kPa
Conditions | x1 = 0.0018 | x1 = 0.0054 | x1 = 0.0089 | x1 = 0.012 | x1 = 0.016
298.15 K | 0.9999 ± 0.01 | 1.068 ± 0.01 | 1.197 ± 0.01 | 1.397 ± 0.012 | 1.648 ± 0.014
303.15 K | 0.8476 ± 0.0084 | 0.9587 ± 0.0089 | 1.107 ± 0.0099 | 1.268 ± 0.011 | 1.492 ± 0.013
308.15 K | 0.7639 ± 0.0072 | 0.8485 ± 0.008 | 0.9715 ± 0.0094 | 1.123 ± 0.01 | 1.341 ± 0.012

N#Cc1ccccc1 + CCCO
viscosity [mPa·s], 101.33 kPa
Conditions | x1 = 0.1072 | x1 = 0.2174 | x1 = 0.2995 | x1 = 0.4082 | x1 = 0.5248 | x1 = 0.5951 | x1 = 0.6992 | x1 = 0.7547 | x1 = 0.9108
303.15 K | 1.447 ± 0.038 | 1.31 ± 0.027 | 1.222 ± 0.026 | 1.138 ± 0.025 | 1.096 ± 0.021 | 1.079 ± 0.02 | 1.066 ± 0.02 | 1.071 ± 0.019 | 1.094 ± 0.021
308.15 K | 1.308 ± 0.028 | 1.19 ± 0.025 | 1.113 ± 0.023 | 1.037 ± 0.02 | 1.006 ± 0.019 | 0.994 ± 0.018 | 0.986 ± 0.018 | 0.991 ± 0.018 | 1.018 ± 0.017
313.15 K | 1.187 ± 0.021 | 1.082 ± 0.023 | 1.017 ± 0.02 | 0.955 ± 0.016 | 0.93 ± 0.017 | 0.918 ± 0.017 | 0.913 ± 0.016 | 0.919 ± 0.016 | 0.951 ± 0.015

NNc1ccccc1 + Oc1ccccc1
323.1 K, 101 kPa
Conditions | viscosity [mPa·s]
x1 = 0.181 | 5.25 ± 0.11
x1 = 0.369 | 7.49 ± 0.15
x1 = 0.466 | 8.02 ± 0.16
x1 = 0.502 | 8.2 ± 0.16
x1 = 0.595 | 8.05 ± 0.16
x1 = 0.781 | 6.56 ± 0.13

CC(=O)CCc1ccccc1 + CCCCCOC(C)=O
298.15 K, 101 kPa
Conditions | viscosity [mPa·s]
x1 = 0.0322 | 0.8102 ± 0.0099
x1 = 0.0702 | 0.8323 ± 0.01

NCCOCCOCCN.O=S(=O)([N-]S(=O)(=O)C(F)(F)F)C(F)(F)F.[Li+] + O
323.15 K, 101 kPa
Conditions | viscosity [mPa·s]
x1 = 0.0299 | 1.86 ± 0.13
x1 = 0.0598 | 4.12 ± 0.23
x1 = 0.1028 | 8.92 ± 0.36
x1 = 0.1994 | 22.16 ± 0.68
x1 = 0.2969 | 37.12 ± 1.1
x1 = 0.3942 | 52.68 ± 1.5
x1 = 0.4958 | 66.7 ± 2.3
x1 = 0.6022 | 79.33 ± 3.4
x1 = 0.6956 | 89.08 ± 4.3
x1 = 0.8777 | 103.8 ± 5.9

C[N+](C)(C)C.NCC(=O)[O-] + OCCO
303 K, 101 kPa
Conditions | viscosity [mPa·s]
x1 = 0.044 | 46.5 ± 1.7
x1 = 0.095 | 75.2 ± 3
x1 = 0.15 | 103.9 ± 4.4
x1 = 0.22 | 138 ± 6.3
x1 = 0.39 | 185.9 ± 9.3
x1 = 0.63 | 251.5 ± 14

C1CC[C@H]2CCCC[C@@H]2C1 + O=C1CCCCC1
viscosity [mPa·s], 101.3 kPa
Conditions | 293.15 K | 303.15 K
x2 = 0.05 | 2.114 ± 0.032 | 1.758 ± 0.026
x2 = 0.15 | 2.103 ± 0.03 | 1.744 ± 0.025
x2 = 0.2415 | 2.105 ± 0.029 | 1.737 ± 0.024
x2 = 0.3447 | 2.119 ± 0.028 | 1.737 ± 0.024
x2 = 0.4511 | 2.147 ± 0.028 | 1.744 ± 0.023
x2 = 0.5088 | 2.168 ± 0.027 | 1.75 ± 0.022
x2 = 0.6731 | 2.253 ± 0.027 | 1.784 ± 0.022
x2 = 0.6779 | 2.256 ± 0.027 | 1.785 ± 0.022
x2 = 0.7761 | 2.326 ± 0.027 | 1.815 ± 0.022
x2 = 0.8609 | 2.397 ± 0.028 | 1.848 ± 0.022
x2 = 0.9315 | 2.466 ± 0.028 | 1.88 ± 0.022
